The values below come from US7285572B2, “CaSR antagonist” (Japan Tobacco Inc., priority 2003, dated 2007).

One data set concerns PTH release.
Assay: not given
As to conditions: rat PTH (1-34) 5 μg/kg, OVX rat; cited from earlier work.
Consider “rat PTH (1-34): rat parathyroid hormone fragment (1-34) administered to OVX rat”, for which the “blood PTH concentration peak in 30 minutes” value is “about 175 pg/ml” and the “time for blood PTH concentration to return to the original level” value is 2 h.

A further data set relates to PTH secretion. Nature of the data set: PTH secretagogue action, oral administration to fasted male SD rats, serum PTH by ELISA. In kind it is in vivo, rat. As to conditions: 3 mg/kg oral, test compound administration group. The procedure: The test compound was orally administered to 5 to 9-week-old male SD rats (Charles River Japan, Inc.) fasted for 20 hr, using a solvent (0.5% aqueous methyl cellulose solution) at a dose of 3 mg/5 ml/kg or 30 mg/5 ml/kg. A solvent alone was orally administered to the control group at a dose of 5 ml/kg. The blood was drawn from the tail vein 15 min, 30 min, 60 min and 120 min after the administration of the test compound, and serum was obtained. The serum PTH concentration was measured using rat PTH ELISA kit (Amersham Biosciences).
On the technique in general: An ELISA detects its analyte on a solid surface through an enzyme-linked reagent.
Consider `C[C@@H](OC[C@H](O)CNC(C)(C)Cc1ccc2ccccc2c1)c1ccccc1CCCCC(=O)O` [Example 25], for which the “serum PTH concentration 15 min later” value is 19.16 ± 4.05 pg/mL and the “serum PTH concentration 30 min later” value is 18.15 ± 3.15 pg/mL.

For the compound `C[C@@H](OC[C@H](O)CNC(C)(C)Cc1ccc2ccccc2c1)c1ccccc1-c1cccc(CC(=O)O)c1` [Example 4, [2′-[(1R)-1-[(2R)-2-hydroxy-3-[[2-methyl-1-(naphthalen-2-yl)propan-2-yl]amino]propoxy]ethyl]biphenyl-3-yl]acetic acid], the “serum PTH concentration 15 min later” value was determined as 22.71 ± 2.52 pg/mL, the “serum PTH concentration 30 min later” value is 22.83 ± 2.91 pg/mL, the “serum PTH concentration 60 min later” value turned out to be 13.69 ± 2.09 pg/mL and the “serum PTH concentration 120 min later” value worked out at 11.76 ± 1.24 pg/mL.

The same data set, now with this note: 30 mg/kg oral, test compound administration group.
Take `Cc1ccccc1[C@H](OC[C@@H](CNC(C)(C)Cc1ccc2ccccc2c1)OC(=O)/C=C\C(=O)O)C1CC1` [Example 6, (Z)-butenedioic acid mono-[(2R)-1-[(1R)-(cyclopropyl)-(2-methylphenyl)methoxy]-3-[[2-methyl-1-(naphthalen-2-yl)propan-2-yl]amino]propan-2-yl]ester]: the “serum PTH concentration 30 min later” value stood at 14.45 ± 1.45 pg/mL and the “serum PTH concentration 60 min later” value came out at 13.91 ± 1.62 pg/mL.

A further data set deals with T1, human calcium receptor (Homo sapiens, UniProt P41180).
T1 construct: expressed in transfected cells; host or cells: cell strain derived from rat adrenal, co-transfected with luciferase cDNA
T1 sequence (P41180 20-1078): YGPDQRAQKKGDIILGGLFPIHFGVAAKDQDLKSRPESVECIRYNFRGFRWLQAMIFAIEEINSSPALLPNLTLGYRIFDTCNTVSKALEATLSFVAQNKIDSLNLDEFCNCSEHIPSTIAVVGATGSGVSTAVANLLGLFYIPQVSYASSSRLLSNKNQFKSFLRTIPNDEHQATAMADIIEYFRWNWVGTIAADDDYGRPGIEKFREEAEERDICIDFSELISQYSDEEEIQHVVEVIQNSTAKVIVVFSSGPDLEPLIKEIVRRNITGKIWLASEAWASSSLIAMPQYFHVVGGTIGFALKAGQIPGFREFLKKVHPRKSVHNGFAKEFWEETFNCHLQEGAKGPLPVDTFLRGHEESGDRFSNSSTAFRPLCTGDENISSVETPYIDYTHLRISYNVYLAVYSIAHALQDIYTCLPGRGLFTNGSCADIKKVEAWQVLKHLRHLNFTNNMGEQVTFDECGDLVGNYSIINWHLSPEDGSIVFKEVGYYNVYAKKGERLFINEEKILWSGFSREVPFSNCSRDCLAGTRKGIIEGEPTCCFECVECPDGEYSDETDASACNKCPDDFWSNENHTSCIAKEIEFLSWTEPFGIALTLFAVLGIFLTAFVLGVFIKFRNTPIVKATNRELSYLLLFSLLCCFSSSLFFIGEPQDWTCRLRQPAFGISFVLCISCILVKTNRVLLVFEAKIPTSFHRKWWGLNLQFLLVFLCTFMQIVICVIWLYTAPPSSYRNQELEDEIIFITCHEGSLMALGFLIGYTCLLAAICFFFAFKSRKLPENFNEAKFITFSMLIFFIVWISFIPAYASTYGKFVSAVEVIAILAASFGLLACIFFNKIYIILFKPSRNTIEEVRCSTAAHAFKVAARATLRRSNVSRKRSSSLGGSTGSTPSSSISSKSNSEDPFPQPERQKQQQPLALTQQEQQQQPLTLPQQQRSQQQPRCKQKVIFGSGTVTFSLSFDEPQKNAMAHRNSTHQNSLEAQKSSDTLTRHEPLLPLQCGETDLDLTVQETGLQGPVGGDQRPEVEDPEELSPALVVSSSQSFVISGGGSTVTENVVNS
Nature of the data set: Evaluation of antagonistic action on calcium receptor using reporter gene (luciferase). The format is cell-based. As to conditions: rat adrenal derived cells with luciferase and human calcium receptor cDNA, 5 mM calcium chloride, 4 hrs; read-out: IC50 (concentration showing 50% inhibitory rate of luciferase activity). The procedure:
Evaluation of Antagonistic Action on Calcium Receptor Using Reporter Gene
Luciferase cDNA and human calcium receptor cDNA were introduced into a cell strain derived from rat adrenal to transform the cells, and the transformed cells were cultured in a medium (80 μl, F12 medium containing 0.5% dialyzed horse serum and 0.25% dialyzed bovine fetal serum). A dimethyl sulfoxide solution containing a test compound at 0.1-10000 μM was diluted 100-fold with the medium and added to the test compound group at 10 μl per well (final concentration of dimethyl sulfoxide is 0.1%). In the same manner as in test compound group, dimethyl sulfoxide diluted 100-fold with medium was added to a control group and a blank group. Then, 50 mM calcium chloride-containing medium was added to every well except the blank group at 10 μl per well (final concentration is 5 mM). A medium alone was added to the blank group. After culture for 4 hrs, luciferase substrate was added and the luciferase activity was measured with a photoluminometer. The inhibitory rate (%) was calculated from the obtained measured values according to the following formula.
Based on the results, the concentration (IC50) showing 50% inhibitory rate was determined.
Consider `CC(OC[C@H](O)CNC(C)(C)Cc1ccc2ccccc2c1)c1ccccc1C#CC(=O)O` (stereo partly drawn) [Example 10, [2-[1-[(2R)-2-hydroxy-3-[[2-methyl-1-(naphthalen-2-yl)propan-2-yl]amino]propoxy]ethyl]phenyl]propynoic acid], for which the IC50 turned out to be 23 nM.

As to `CC(OC[C@H](O)CNC(C)(C)Cc1ccc2ccccc2c1)c1ccccc1-c1ccc(CC(N)=O)cc1` (stereo partly shown) [Example 15], the IC50 was 145 nM.

`CCOP(=O)(O)c1ccc(-c2ccccc2C(C)OC[C@H](O)CNC(C)(C)Cc2ccc3ccccc3c2)cc1` (stereo partly shown) [Example 21]: the IC50 worked out at 15 nM.

As for `C[C@@H](OC[C@H](O)CNC(C)(C)Cc1ccc2ccccc2c1)c1ccccc1-c1ccc(N)cc1` [Example 29], the IC50 was 55 nM.

With `CC(OC(=O)OC1CCCCC1)OC(=O)c1ccc(-c2ccccc2C(C)OC[C@H](O)CNC(C)(C)Cc2ccc3ccccc3c2)cc1` (stereo partly drawn) [Example 8, 1-(cyclohexyloxycarbonyloxy)ethyl 2′-[1-[(2R)-2-hydroxy-3-[[2-methyl-1-(naphthalen-2-yl)propan-2-yl]amino]propoxy]ethyl]biphenyl-4-carboxylate], the IC50 is 21 nM.

Regarding `Cc1ccccc1[C@H](OC[C@@H](CNC(C)(C)Cc1ccc2ccccc2c1)OC(=O)/C=C\C(=O)O)C1CC1` [Example 6, (Z)-butenedioic acid mono-[(2R)-1-[(1R)-(cyclopropyl)-(2-methylphenyl)methoxy]-3-[[2-methyl-1-(naphthalen-2-yl)propan-2-yl]amino]propan-2-yl]ester], the IC50 was 79 nM.

On to `C[C@@H](OC[C@H](O)CNC(C)(C)Cc1ccc2ccccc2c1)c1ccccc1CCCCCC(=O)O` [Example 2, 6-[2-[(1R)-1-[(2R)-2-hydroxy-3-[[2-methyl-1-(naphthalen-2-yl)propan-2-yl]amino]propoxy]ethyl]phenyl]hexanoic acid], for which the IC50 was 14 nM.

As for `CC(OC[C@H](O)CNC(C)(C)Cc1ccc2ccccc2c1)c1ccccc1OCCCCC(=O)O` (stereo partly shown) [Example 26], the IC50 worked out at 190 nM.

On to `C[C@@H](OC[C@H](O)CNC(C)(C)Cc1ccc2ccccc2c1)c1ccccc1-c1ccc([N+](=O)[O-])cc1` [Example 28], for which the IC50 was 254 nM.

In the case of `CC(OC[C@H](O)CNC(C)(C)Cc1ccc2ccccc2c1)c1ccccc1-c1ccc(CC(=O)O)cc1` (stereo partly shown) [Example 14], the IC50 came out at 119 nM.

As for `CCOC(=O)Cc1ccc(-c2ccccc2C(C)OC[C@H](O)CNC(C)(C)Cc2ccc3ccccc3c2)cc1` (stereo partly shown) [Example 13], the IC50 amounted to 160 nM.

With `C[C@@H](OC[C@H](O)CNC(C)(C)Cc1ccc2ccccc2c1)c1ccccc1/C=C/C(=O)O` [Example 23], the IC50 came out at 16 nM.

Regarding `C[C@@H](OC[C@H](O)CNC(C)(C)Cc1ccc2ccccc2c1)c1ccccc1-c1ccc(C(=O)NO)cc1` [Example 17], the IC50 was found to be 104 nM.

As for `C[C@@H](OC[C@H](O)CNC(C)(C)Cc1ccc2ccccc2c1)c1ccccc1OCCCC(=O)O` [Example 24], the IC50 was 246 nM.

Turning to `CC(OC[C@H](O)CNC(C)(C)Cc1ccc2ccccc2c1)c1ccccc1-c1ccc(-c2nnn[nH]2)cc1` (stereo partly drawn) [Example 7, (R)-3-[[2-methyl-1-(naphthalen-2-yl)propan-2-yl]amino]-1-[1-[4′-(1H-tetrazol-5-yl)biphenyl-2-yl]ethoxy]propan-2-ol], the IC50 amounted to 11 nM.

Turning to `C=Cc1ccc(CC(C)(C)NC[C@@H](O)CO[C@H](C)c2ccccc2-c2ccc(C(=O)O)cc2)cc1` [Example 27], the IC50 was 14 nM.

Turning to `CC(OC[C@H](O)CNC(C)(C)Cc1ccc2ccccc2c1)c1ccccc1OCC(=O)O` (stereo partly shown) [Example 22], the IC50 turned out to be 237 nM.

For `CC(OC[C@H](O)CNC(C)(C)Cc1ccc2ccccc2c1)c1ccccc1-c1ccc(C(N)=O)cc1` (stereo partly shown) [Example 20], the IC50 stood at 30 nM.

Consider `CC(=O)NCc1ccc(-c2ccccc2[C@@H](C)OC[C@H](O)CNC(C)(C)Cc2ccc3ccccc3c2)cc1` [Example 5, N-[[2′-[(1R)-1-[(2R)-2-hydroxy-3-[[2-methyl-1-(naphthalen-2-yl)propan-2-yl]amino]propoxy]ethyl]biphenyl-4-yl]methyl]acetamide], for which the IC50 turned out to be 24 nM.

Turning to `CC(OC[C@H](O)CNC(C)(C)Cc1ccc2ccccc2c1)c1ccccc1-c1ccc(-c2nsc(=O)[nH]2)cc1` (stereo partly shown) [Example 16], the IC50 is 135 nM.

For the compound `CC(OC[C@H](O)CNC(C)(C)Cc1ccc2ccccc2c1)c1ccccc1-c1ccc(-c2nc(=O)o[nH]2)cc1` (stereo partly shown) [Example 19], the IC50 came out at 18 nM.

Consider `CC(OC[C@H](O)CNC(C)(C)Cc1ccc2ccccc2c1)c1ccccc1-c1ccc(C(=O)O)s1` (stereo partly drawn) [Example 9, 5-[2-[1-[(2R)-2-hydroxy-3-[[2-methyl-1-(naphthalen-2-yl)propan-2-yl]amino]propoxy]ethyl]phenyl]thiophene-2-carboxylic acid], for which the IC50 is 14 nM.

As to `C[C@@H](OC[C@H](O)CNC(C)(C)Cc1ccc2ccccc2c1)c1ccccc1CCCCC(=O)O` [Example 25], the IC50 stood at 18 nM.

`CCOP(=O)(O)c1ccc(-c2ccccc2[C@@H](C)OC[C@H](O)CNC(C)(C)Cc2ccc3ccccc3c2)cc1` [Example 11, Monoethyl [2′-[(1R)-1-[(2R)-2-hydroxy-3-[[2-methyl-1-(naphthalen-2-yl)propan-2-yl]amino]propoxy]ethyl]biphenyl-4-yl]phosphonate]: the IC50 stood at 8 nM.

As to `CC(C)(Cc1ccc2ccccc2c1)NC[C@@H](O)COC(C1CC1)C1CC1` [Example 3, (2R)-1-dicyclopropylmethoxy-3-[[2-methyl-1-(naphthalen-2-yl)propan-2-yl]amino]propan-2-ol], the IC50 worked out at 23 nM.

For `Cc1ccc(CC(C)(C)NC[C@@H](O)CO[C@H](C)c2ccccc2OCc2ccc(C(=O)O)s2)cc1F` [Example 30], the IC50 amounted to 183 nM.

Consider `C[C@@H](OC[C@H](O)CNC(C)(C)Cc1ccc2ccccc2c1)c1ccccc1-c1cccc(CC(=O)O)c1` [Example 4, [2′-[(1R)-1-[(2R)-2-hydroxy-3-[[2-methyl-1-(naphthalen-2-yl)propan-2-yl]amino]propoxy]ethyl]biphenyl-3-yl]acetic acid], for which the IC50 was 11 nM.
